# Source: US20110183978A1, “Phenylpyri(mi)dinylazoles” (Bayer CropScience AG, priority 2009, published 2011)
# Test: physchem
Structure (SMILES),"chromatographic logP (pH 2.3, LogP (pH 2.3))","chromatographic logP (pH 2.7, logP (pH 2.7))"
"CCn1cc(Br)c(-c2ccc(F)cc2)n1 [[VI-2], 4-Bromo-1-ethyl-3-(4-fluorophenyl)-1H-pyrazole]",3.32,3.37
"CCn1ncc(Br)c1-c1ccc(F)cc1 [[VI-3], 4-Bromo-1-ethyl-5-(4-fluorophenyl)-1H-pyrazole]",,3.15
"CC(C)Cn1cc(Br)c(-c2ccc(F)cc2)n1 [[VI-4], 4-Bromo-3-(4-fluorophenyl)-1-isobutyl-1H-pyrazole]",4.34,4.34
"CC(C)Cn1ncc(Br)c1-c1ccc(F)cc1 [[VI-5], 4-Bromo-5-(4-fluorophenyl)-1-isobutyl-1H-pyrazole]",,4.04
"COCCn1cc(Br)c(-c2ccc(F)cc2)n1 [[VI-6], 4-Bromo-3-(4-fluorophenyl)-1-(2-methoxyethyl)-1H-pyrazole]",3.08,3.08
"COCCn1ncc(Br)c1-c1ccc(F)cc1 [[VI-7], 4-Bromo-5-(4-fluorophenyl)-1-(2-methoxyethyl)-1H-pyrazole]",,2.9
"CC(c1ccccc1F)n1cc(Br)c(-c2ccc(F)cc2)n1 (stereo not shown) [[VI-9], 4-bromo-3-(4-fluorophenyl)-1-[1-(2-fluorophenyl)ethyl]-1H-pyrazole]",4.77,3.63
"Fc1ccc(-c2nn(CC3CC3(Cl)Cl)cc2Br)cc1 (stereo not shown) [[VI-10], 4-bromo-1-[(2,2-dichlorocyclopropyl)methyl]-3-(4-fluorophenyl)-1H-pyrazole]",4.43,4.43
"CC(C)Cn1cc(Br)c(-c2ccc(F)c(C#N)c2)n1 [[VI-11], 5-(4-Bromo-1-isobutyl-1H-pyrazol-3-yl)-2-fluorobenzonitrile]",4.15,4.15
"N#Cc1cccc(Cn2cc(Br)c(-c3ccc(F)cc3)n2)c1 [[VI-12], 3-{[4-Bromo-3-(4-fluorophenyl)-1H-pyrazol-1-yl]methyl}benzonitrile]",3.93,3.93
"Fc1ccc(-c2nn(Cc3ccccc3F)cc2Br)cc1 [[VI-13], 4-Bromo-1-(2-fluorobenzyl)-3-(4-fluorophenyl)-1H-pyrazole]",4.39,4.39
"CCCn1cc(Br)c(-c2ccc(F)cc2)n1 [[VI-14], 4-Bromo-3-(4-fluorophenyl)-1-propyl-1H-pyrazole]",3.89,3.89
"CSCCn1cc(Br)c(-c2ccc(F)cc2)n1 [[VI-15], 4-Bromo-3-(4-fluorophenyl)-1-[2-(methylsulphanyl)ethyl]-1H-pyrazole]",3.63,3.63
"COC(=O)C(C(C)C)n1cc(Br)c(-c2ccc(F)cc2)n1 (stereo not shown) [[VI-16], Methyl 2-[4-bromo-3-(4-fluorophenyl)-1H-pyrazol-1-yl]-3-methylbutanoate]",4.27,4.27
"Fc1ccc(-c2nn(CC3OCCO3)cc2Br)cc1 [[VI-17], 4-Bromo-1-(1,3-dioxolan-2-ylmethyl)-3-(4-fluorophenyl)-1H-pyrazole]",3.01,3.01
"Fc1ccc(-c2nn(CC3CC3)cc2Br)cc1 [[VI-18], 4-Bromo-1-(cyclopropylmethyl)-3-(4-fluorophenyl)-1H-pyrazole]",3.9,3.9
"CCC(C)n1cc(Br)c(-c2ccc(F)cc2)n1 (stereo not shown) [[VI-19], 4-Bromo-1-sec-butyl-3-(4-fluorophenyl)-1H-pyrazole]",4.39,4.39
"CCOCCn1cc(Br)c(-c2ccc(F)cc2)n1 [[VI-20], 4-Bromo-1-(2-ethoxyethyl)-3-(4-fluorophenyl)-1H-pyrazole]",3.51,3.51
"CC(CC#N)n1cc(Br)c(-c2ccc(F)cc2)n1 (stereo not shown) [[VI-21], 3-[4-Bromo-3-(4-fluorophenyl)-1H-pyrazol-1-yl]butanonitrile]",3.08,3.08
"CC(C1CC1)n1cc(Br)c(-c2ccc(F)cc2)n1 (stereo not shown) [[VI-22], 4-Bromo-1-(1-cyclopropylethyl)-3-(4-fluorophenyl)-1H-pyrazole]",4.43,4.43
"N#CCCn1cc(Br)c(-c2ccc(F)cc2)n1 [[VI-23], 3-[4-bromo-3-(4-fluorophenyl)-1H-pyrazol-1-yl]propanonitrile]",2.69,2.69
"CC(C)n1nc(-c2ccc(F)cc2)c(Br)c1C(F)(F)F [[VI-24], 4-Bromo-3-(4-fluorophenyl)-1-isopropyl-5-(trifluoromethyl)-1H-pyrazole]",5.51,5.51
"CC(C)On1cc(Br)c(-c2ccc(F)cc2)n1 [[VI-25], 4-Bromo-3-(4-fluorophenyl)-1-isopropoxy-1H-pyrazole]",4.11,4.11

Structure (SMILES),"chromatographic logP (pH 2.3, LogP (pH 2.3))","chromatographic logP (pH 2.7, logP (pH 2.7))"
"Fc1ccc(-c2nn(C3CC3)cc2Br)cc1 [[VI-26], 4-Bromo-1-cyclopropyl-3-(4-fluorophenyl)-1H-pyrazole]",3.59,3.59
"CC(C)(C)OC(=O)N1CCC(n2cc(Br)c(-c3ccc(F)cc3)n2)CC1 [[VI-27], Tert-butyl 4-[4-bromo-3-(4-fluorophenyl)-1H-pyrazol-1-yl]piperidin-1-carboxylate]",4.77,4.77
"Cn1nc(-c2ccc(F)cc2)c(Br)c1OC(F)F [[VI-b-1], 4-Bromo-5-(difluoromethoxy)-3-(4-fluorophenyl)-1-methyl-1H-pyrazole]",3.52,3.52
"CC(C)n1nc(-c2ccc(F)cc2)c(Br)c1OC(F)F [[VI-b-2], 4-Bromo-5-(difluoromethoxy)-3-(4-fluorophenyl)-1-isopropyl-1H-pyrazole]",4.61,4.61
"CC(C)Cn1nc(-c2ccc(F)cc2)c(Br)c1OC(F)F [[VI-b-3], 4-Bromo-5-(difluoromethoxy)-3-(4-fluorophenyl)-1-isobutyl-1H-pyrazole]",4.91,4.91
"COc1cc(F)ccc1-c1nn(C)c(OC(F)F)c1Br [[VI-b-4], 4-Bromo-5-(difluoromethoxy)-3-(4-fluoro-2-methoxyphenyl)-1-methyl-1H-pyrazole]",,3.15
"Cn1nc(-c2ccc(F)cc2O)c(Br)c1OC(F)F [[VI-c-1], 2-[4-Bromo-5-(difluoromethoxy)-1-methyl-1H-pyrazol-3-yl]-5-fluorophenol]",3.48,3.48
"Fc1ccc(-c2n[nH]cc2Br)cc1 [[VII-I], 4-Bromo-3-(4-fluorophenyl)-1H-pyrazole]",,2.29
"Fc1ccc(-c2c(-c3ccncc3)cnn2C2CCCCO2)cc1 (stereo not shown) [[X-1], 4-[5-(4-Fluorophenyl)-1-(tetrahydro-2H-pyran-2-yl)-1H-pyrazol-4-yl]pyridine]",1.23,1.23
"COc1ccc(-c2c(-c3ccncc3)cnn2C2CCCCO2)c2ccccc12 (stereo not shown) [[X-2], 4-[5-(4-methoxy-1-naphthyl)-1-(tetrahydro-2H-pyran-2-yl)-1H-pyrazol-4-yl]pyridine]",1.61,
"Fc1ccc(-c2c(-c3ccncc3)cnn2C2CCCCO2)c2ccccc12 (stereo not shown) [[X-3], 4-[5-(4-fluoro-1-naphthyl)-1-(tetrahydro-2H-pyran-2-yl)-1H-pyrazol-4-yl]pyridine]",1.72,
"FC1(F)Oc2cccc(-c3c(-c4ccncc4)cnn3C3CCCCO3)c2O1 (stereo not shown) [[X-4], 4-[5-(2,2-difluoro-1,3-benzodioxol-4-yl)-1-(tetrahydro-2H-pyran-2-yl)-1H-pyrazol-4-yl]pyridine]",1.64,
"Fc1ccc(-c2c(-c3ccncc3)cnn2C2CCCCO2)cc1Cl (stereo not shown) [[X-6], 4-[5-(3-chloro-4-fluorophenyl)-1-(tetrahydro-2H-pyran-2-yl)-1H-pyrazol-4-yl]pyridine]",1.57,
"Fc1ccc(-c2c(-c3ccncc3)cnn2C2CCCCO2)c(F)c1 (stereo not shown) [[X-8], 4-[5-(2,4-difluorophenyl)-1-(tetrahydro-2H-pyran-2-yl)-1H-pyrazol-4-yl]pyridine]",1.35,
"CC(C)(C)c1ccc(-c2c(-c3ccncc3)cnn2C2CCCCO2)cc1 (stereo not shown) [[X-9], 4-[5-(4-tert-butylphenyl)-1-(tetrahydro-2H-pyran-2-yl)-1H-pyrazol-4-yl]pyridine]",2.02,
"c1ccc(Oc2ccc(-c3c(-c4ccncc4)cnn3C3CCCCO3)cc2)cc1 (stereo not shown) [[X-10], 4-[5-(4-phenoxyphenyl)-1-(tetrahydro-2H-pyran-2-yl)-1H-pyrazol-4-yl]pyridine]",1.88,
"N#Cc1cccc(-c2c(-c3ccncc3)cnn2C2CCCCO2)c1 (stereo not shown) [[X-11], 3-[4-(pyridin-4-yl)-1-(tetrahydro-2H-pyran-2-yl)-1H-pyrazol-5-yl]benzonitrile]",1.23,
"N#Cc1cc(-c2c(-c3ccncc3)cnn2C2CCCCO2)ccc1F (stereo not shown) [[X-12], 2-fluoro-5-[4-(pyridin-4-yl)-1-(tetrahydro-2H-pyran-2-yl)-1H-pyrazol-5-yl]benzonitrile]",1.45,
"COc1cc(F)ccc1-c1c(-c2ccncc2)cnn1C1CCCCO1 (stereo not shown) [[X-14], 4-[5-(4-fluoro-2-methoxyphenyl)-1-(tetrahydro-2H-pyran-2-yl)-1H-pyrazol-4-yl]pyridine]",1.26,
"c1cc(-c2cnn(C3CCCCO3)c2-c2ccc(N3CCOCC3)cc2)ccn1 (stereo not shown) [[X-15], 4-{4-[4-(pyridin-4-yl)-1-(tetrahydro-2H-pyran-2-yl)-1H-pyrazol-5-yl]phenyl}morpholine]",1.26,
"c1ccc(Oc2cccc(-c3c(-c4ccncc4)cnn3C3CCCCO3)c2)cc1 (stereo not shown) [[X-16], 4-[5-(3-phenoxyphenyl)-1-(tetrahydro-2H-pyran-2-yl)-1H-pyrazol-4-yl]pyridine]",1.88,
"CS(=O)(=O)c1ccc(-c2c(-c3ccncc3)cnn2C2CCCCO2)cc1 (stereo not shown) [[X-17], 4-{5-[4-(methylsulphonyl)phenyl]-1-(tetrahydro-2H-pyran-2-yl)-1H-pyrazol-4-yl}pyridine]",0.96,
"Clc1ccc(-c2c(-c3ccncc3)cnn2C2CCCCO2)cc1 (stereo not shown) [[X-18], 4-[5-(4-chlorophenyl)-1-(tetrahydro-2H-pyran-2-yl)-1H-pyrazol-4-yl]pyridine]",1.52,
